pIC50: −log10 of the molar value. “And” between values parts separate entries of the source, which are not always exact repeats. Equal entries are not always repeated. Where two headings read alike, the source gives them in different places.

Test [1] deals with T1, Recombinant human Ku heterodimer (Homo sapiens, UniProt P12956+P13010).
T1 construct: made in house; host or cells: insect cells infected with recombinant baculovirus
Nature of the test: Ku-DNA binding assay. To be noted: several values in a cell = separate determinations, read-out: IC50. The text has this:
Ku is a DNA end-binding protein that is essential for the repair of DNA double strand breaks via the NHEJ pathway. The mechanism of DNA binding by Ku is via a toroid structure that encircles double-stranded DNA from a terminus.

Test [2] relates to NHEJ activity in H460 cells. The test can be described thus: Host cell reactivation assay of NHEJ mediated re-circularization of a linearized GFP plasmid. Format: cell-based. The text has this: Disruption of Ku-DNA binding should result in inhibition of NHEJ activity, and to test this inhibition we will employ a host cell reactivation assay. This assay utilizes a linearized plasmid encoding a GFP gene that is transfected into the cell and expressed upon NHEJ mediated re-circularization of the plasmid (Sears, CA., 2012 and Woods, D., 2015). Co-transfection of a circular RFP plasmid accounts for differences in transfection efficiency, and NHEJ mediated repair of the GFP plasmid can be quantified by assessing the ratio of green: red cells. This assay will be used to assess the Ku inhibitor compounds in H460 and HEK-293 cells, and the data obtained from these experiments will allow us to determine the sensitivity of the chemical compounds and effect of Ku inhibition on NHEJ activity. As this is a cellular assay, we will also utilize this assay to do a series of time course experiments to determine the optimal time to deliver the inhibitor to cells in order to achieve maximum inhibition of NHEJ activity.

The test system of test [3] is NHEJ end joining in cell free extract from HEK 293. Nature of the test: In vitro NHEJ (end joining) assay with cell free extract. It counts as biochemical. The note with it: linearized plasmid DNA (3 kbp), HEK 293 cell free extract pre-incubated with inhibitor, ATP; read-out: IC50 of inhibition of end joining. On the procedure: Radiolabeled linearized DNA was incubated with whole cell extracts with increasing amounts of inhibitor NG-02-132.
A linearized plasmid DNA (3 kbp) is incubated with a cell free extract prepared from a NHEJ competent cell (HEK 293) and ATP. The results presented in FIG. 8 show the substrate alone in lane 1 and the degree of end joining control reactions as evidenced by the formation of plasmid multimers.

Test [4] deals with H460 non-small cell lung cancer cells, EMX1 locus. The test can be described thus: Crispr/Cas9 mediated gene insertion at the EMX1 locus. It counts as cell-based. The text has this:
To assess the effect of Ku inhibitors on genome engineering efficiency we designed an assay to quantify the recombination efficiency of a Crispr/Cas9 mediated gene insertion event. A donor insert of 2.2 kbp encoding puromycin resistance and a GFP gene was flanked by 800 bp homology arms directing the insert to the EMX1 locus. A guide RNA directing the Cas9 nuclease to the EMX1 gene was purchased and co-transfected with the donor construct and Cas9 expressing plasmid in H460 non-small cell lung cancer cells that were either treated with vehicle or 20 uM 205. 24 hours later, cells were placed under selection with puromycin for 5 days and plated in 96-well plates for single cell cloning. Clones were expanded, genomic DNA isolated and location specific PCR analysis was performed to assess accurate gene insertion at the EMX1 locus.

Setting [5] is: Table 2, synthesized derivatives.
[6] abbreviates: Table 1, purchased second generation inhibitors.

T1 sequence (P12956 whole entry): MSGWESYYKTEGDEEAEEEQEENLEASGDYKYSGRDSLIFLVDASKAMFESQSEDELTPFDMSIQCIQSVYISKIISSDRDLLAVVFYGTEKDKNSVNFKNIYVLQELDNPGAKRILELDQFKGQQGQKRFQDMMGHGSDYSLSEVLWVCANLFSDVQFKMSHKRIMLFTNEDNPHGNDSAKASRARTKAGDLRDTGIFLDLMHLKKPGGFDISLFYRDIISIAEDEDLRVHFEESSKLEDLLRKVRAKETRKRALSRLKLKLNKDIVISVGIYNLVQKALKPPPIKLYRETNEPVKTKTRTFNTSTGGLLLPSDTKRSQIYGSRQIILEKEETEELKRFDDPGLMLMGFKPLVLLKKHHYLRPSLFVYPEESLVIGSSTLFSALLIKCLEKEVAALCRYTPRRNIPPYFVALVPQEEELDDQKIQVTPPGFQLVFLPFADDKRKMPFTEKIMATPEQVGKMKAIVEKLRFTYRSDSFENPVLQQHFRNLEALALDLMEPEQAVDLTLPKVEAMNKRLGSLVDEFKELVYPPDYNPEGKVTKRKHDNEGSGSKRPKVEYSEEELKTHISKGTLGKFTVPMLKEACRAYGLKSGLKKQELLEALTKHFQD
T1 sequence (P13010 whole entry): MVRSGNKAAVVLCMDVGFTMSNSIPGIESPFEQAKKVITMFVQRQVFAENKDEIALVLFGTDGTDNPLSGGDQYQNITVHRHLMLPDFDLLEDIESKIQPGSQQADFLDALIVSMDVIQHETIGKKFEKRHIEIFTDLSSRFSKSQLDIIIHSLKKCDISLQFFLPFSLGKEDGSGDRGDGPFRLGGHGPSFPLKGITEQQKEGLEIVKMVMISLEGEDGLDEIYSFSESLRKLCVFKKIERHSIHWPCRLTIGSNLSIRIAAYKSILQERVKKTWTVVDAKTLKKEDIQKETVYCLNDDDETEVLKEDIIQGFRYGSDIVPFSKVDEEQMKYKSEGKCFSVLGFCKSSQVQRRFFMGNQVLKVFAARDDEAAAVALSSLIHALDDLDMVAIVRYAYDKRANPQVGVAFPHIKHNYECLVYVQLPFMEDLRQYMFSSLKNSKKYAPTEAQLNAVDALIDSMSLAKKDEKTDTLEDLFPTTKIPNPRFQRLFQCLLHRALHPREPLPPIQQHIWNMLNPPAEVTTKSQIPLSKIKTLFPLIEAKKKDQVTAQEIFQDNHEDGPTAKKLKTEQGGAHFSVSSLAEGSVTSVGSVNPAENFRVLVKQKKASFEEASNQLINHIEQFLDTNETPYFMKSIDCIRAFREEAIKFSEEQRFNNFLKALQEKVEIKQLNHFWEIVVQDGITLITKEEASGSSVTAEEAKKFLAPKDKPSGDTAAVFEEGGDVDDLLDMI

In general, IC50 refers to the point on the concentration scale where inhibition reaches its midpoint. In the case of `COc1cccc(NC(=O)c2cc(-c3ccc(/C=C4\C(=O)N(c5cccc(C(=O)O)c5)N=C4C)o3)ccc2Cl)c1` [NG-01-68/02-140/03-180, (Z)-3-(4-((5-(4-Chloro-3-((3-methoxyphenyl)carbamoyl)phenyl)furan-2-yl)methylene)-3-methyl-5-oxo-4,5-dihydro-1H-pyrazol-1-yl)benzoic acid], the IC50 in test [1] (setting [5]) is 6 µM and 15 µM and 4 µM (2×). Also, the “NHEJ catalyzed repair events” value in test [2] (H460 cells preincubated 2 hours prior to transfection of the reporters, measured 48 hours post transfection, without compound 26%, preliminary data) is on record as 17%. Further, the “reduction of NHEJ catalyzed repair events” value in test [2] (H460 cells, 2 hours preincubation, 48 hours post transfection, from 26% to 17%) worked out at 35%. Broadly, the pIC50 is −log10 of the IC50, conventionally taken in molar units. Consider `COc1cccc(NC(=O)c2cc(-c3ccc(CC4C(=O)N(c5cccc(C(=O)O)c5)N=C4C)o3)ccc2Cl)c1` (stereo not shown) [NG-02-132/ NG-02-149, 3-(4-((5-(4-Chloro-3-((3-methoxyphenyl)carbamoyl)phenyl)furan-2-yl)methyl)-3-methyl-5-oxo-4,5-dihydro-1H-pyrazol-1-yl)benzoic acid], for which the IC50 in test [1] (setting [5]) is 1 µM (2×) and 4 µM and 6 µM. Besides, the pIC50 in test [3] was approximately 4.82. On to `COc1cccc(NC(=O)c2cc(-c3ccc(CC4C(=O)N(c5cccc(-c6nnn[nH]6)c5)N=C4C)o3)ccc2Cl)c1` (stereo not shown) [NG-03-205, 5-(5-((1-(3-(1H-Tetrazol-5-yl)phenyl)-3-methyl-5-oxo-4,5-dihydro-1H-pyrazol-4-yl)methyl)furan-2-yl)-2-chloro-N-(3-methoxyphenyl)benzamide], for which, in test [1] (setting [5]), the pIC50 was 4.89. Besides, in test [4] (+Inhibitor (20 uM), accurate gene insertion at EMX1 locus, −Inhibitor 14%), the Efficiency was determined as 80%. The “In/Out+” value in test [4] (+Inhibitor (20 uM), clones positive in location specific PCR, −Inhibitor 4) is 4. In addition, in test [4] (+Inhibitor (20 uM), puromycin selection 5 days, single cell cloning, −Inhibitor 28), the Clones came to 5. In test [4] (H460 cells, 20 uM, versus vehicle), the “increase in precise genome insertion efficiency” value was “greater than 6 fold”. For the compound `CCOC(=O)c1cccc(N2N=C(C)C(Cc3ccc(-c4ccc(Cl)c(C(=O)Nc5cccc(OC)c5)c4)o3)C2=O)c1` (stereo not shown) [NG-02-131, Ethyl 3-(4-((5-(4-chloro-3-((3-methoxyphenyl)carbamoyl)phenyl)furan-2-yl)methyl)-3-methyl-5-oxo-4,5-dihydro-1H-pyrazol-1-yl)benzoate], the pIC50 in test [1] (setting [5]) is 5.52. Turning to `CCOC(=O)c1cc(-c2ccc(/C=C3\C(=O)N(c4cccc(C(=O)O)c4)N=C3C)o2)ccc1Cl` [compound 2733, reference compound], the pIC50 in test [1] (setting [6]) was 5.38 and 5.05.

On to `CC1=NN(c2ccc(Cl)c(C(=O)O)c2)C(=O)/C1=C\c1ccc(-c2cccc(C(=O)OC(C)C)c2)o1` [compound 3315, reference compound], for which the pIC50 in test [1] (setting [6]) was 4.51 and 5.24. `CC1=NN(c2cccc(C(=O)O)c2)C(=O)/C1=C\c1ccc(-c2cc([N+](=O)[O-])ccc2O)o1` [compound 1564, reference compound]: the pIC50 in test [1] (setting [6]) was 4.68 and 5.15. Same read-out and setting: with `CCOC(=O)c1cccc(-c2ccc(/C=C3\C(=O)N(c4ccc(Cl)c(C(=O)O)c4)N=C3C)o2)c1` [compound 3278, reference compound] the figure was 5.37 and 5.09.

For the compound `CC1=NN(c2cccc(C(=O)O)c2)C(=O)C1Cc1ccc(-c2ccc(Cl)c(C(=O)NCC3CC3)c2)s1` (stereo not shown) [NG-03-231, 3-(4-((5-(4-Chloro-3-((cyclopropylmethyl)carbamoyl)phenyl)thiophen-2-yl)methyl)-3-methyl-5-oxo-4,5-dihydro-1H-pyrazol-1-yl)benzoic acid], the pIC50 in test [1] (setting [5]) is 4.92.

Regarding `CC1=NN(c2cccc(C(=O)O)c2)C(=O)/C1=C\c1ccc(-c2ccc(C(=O)O)cc2)o1` [compound 2513, reference compound], the pIC50 in test [1] (setting [6]) is 3.82. With `COc1ccc(NC(=O)c2cc(-c3ccc(/C=C4\C(=O)N(c5cccc(C(=O)O)c5)N=C4C)o3)ccc2Cl)cc1OC` [NG-03-189, (Z)-3-(4-((5-(4-chloro-3-((3,4-dimethoxyphenyl)carbamoyl)phenyl)furan-2-yl)methylene)-3-methyl-5-oxo-4,5-dihydro-1H-pyrazol-1-yl)benzoic acid], the pIC50 in test [1] (setting [5]) was 4.85. Take `CC1=NN(c2ccc(S(N)(=O)=O)cc2)C(=O)/C1=C\c1ccc(-c2ccc(Cl)c(C(=O)NCC3CC3)c2)o1` [NG-03-212, (Z)-2-chloro-N-(cyclopropylmethyl)-5-(5-((3-methyl-5-oxo-1-(4-sulfamoylphenyl)-1,5-dihydro-4H-pyrazol-4-ylidene)methyl)furan-2-yl)benzamide]: the pIC50 in test [1] (setting [5]) is 4.52. Still for that read-out and setting: with `COc1cccc(NC(=O)c2cc(-c3ccc(/C=C4\C(=O)N(c5cccc(-c6nnn[nH]6)c5)N=C4C)o3)ccc2Cl)c1` [NG-02-201/ NG-03-244] the figure was 5.40. Still for that read-out and setting: with `CC1=NN(c2ccc(C(=O)O)cc2)C(=O)/C1=C\c1ccc(-c2ccc(Cl)c(C(=O)O)c2)s1` [NG-03-234, (Z)-5-(5-((1-(4-Carboxyphenyl)-3-methyl-5-oxo-1,5-dihydro-4H-pyrazol-4-ylidene)methyl)thiophen-2-yl)-2-chlorobenzoic acid] the figure was 5.22. For `CC1=NN(c2cccc(C(=O)O)c2)C(=O)/C1=C\c1ccc(-c2ccc(Cl)c(C(=O)NCc3ccccc3)c2)o1` [NG-03-270, (Z)-3-(4-((5-(3-(Benzylcarbamoyl)-4-chlorophenyl)furan-2-yl)methylene)-3-methyl-5-oxo-4,5-dihydro-1H-pyrazol-1-yl)benzoic acid], in test [1] (setting [5]), the pIC50 is 5.00.
